Source: PubChem BioAssay (NCI)
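At the GI50, growth is halved. TGI denotes the concentration required for complete inhibition of growth.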

Assays:
Assay in all cases: growth of human tumour cells (NCI), 384-well format
SW-620 colon = system: SW-620 colon
UACC-62 melanoma = system: UACC-62 melanoma
MCF7 breast = system: MCF7 breast
NCI/ADR-RES ovarian = system: NCI/ADR-RES ovarian
LOX IMVI melanoma = system: LOX IMVI melanoma
RPMI-8226 leukemia = system: RPMI-8226 leukemia
SNB-75 CNS = system: SNB-75 CNS
A498 renal = system: A498 renal
M14 melanoma = system: M14 melanoma
OVCAR-3 ovarian = system: OVCAR-3 ovarian
SF-268 CNS = system: SF-268 CNS
A549 NSCLC = system: A549 NSCLC
SK-MEL-2 melanoma = system: SK-MEL-2 melanoma
HCT-116 colon = system: HCT-116 colon
NCI-H23 lung = system: NCI-H23 lung
NCI-H522 lung = system: NCI-H522 lung
OVCAR-5 ovarian = system: OVCAR-5 ovarian
T-47D breast = system: T-47D breast
SF-539 CNS = system: SF-539 CNS
HS 578T breast = system: HS 578T breast
SF-295 CNS = system: SF-295 CNS
MDA-MB-435 melanoma = system: MDA-MB-435 melanoma
HOP-92 NSCLC = system: HOP-92 NSCLC
MDA-MB-231 breast = system: MDA-MB-231 breast
PC-3 prostate = system: PC-3 prostate
HCC-2998 colon = system: HCC-2998 colon
CCRF-CEM leukemia = system: CCRF-CEM leukemia
NCI-H460 NSCLC = system: NCI-H460 NSCLC
OVCAR-8 ovarian = system: OVCAR-8 ovarian
SNB-19 CNS = system: SNB-19 CNS
MDA-MB-468 breast = system: MDA-MB-468 breast
K-562 leukemia = system: K-562 leukemia
HCT-15 colon = system: HCT-15 colon
RXF 393 renal = system: RXF 393 renal
EKVX NSCLC = system: EKVX NSCLC
HOP-62 NSCLC = system: HOP-62 NSCLC
U251 glioblastoma = system: U251 glioblastoma
NCI-H322M lung = system: NCI-H322M lung
SK-MEL-5 melanoma = system: SK-MEL-5 melanoma
KM12 colon = system: KM12 colon
ACHN renal = system: ACHN renal
IGROV1 ovarian = system: IGROV1 ovarian
OVCAR-4 ovarian = system: OVCAR-4 ovarian
MALME-3M melanoma = system: MALME-3M melanoma
TK-10 renal = system: TK-10 renal
CAKI-1 renal = system: CAKI-1 renal
BT-549 breast = system: BT-549 breast
NCI-H226 lung = system: NCI-H226 lung
MOLT-4 leukemia = system: MOLT-4 leukemia
786-0 renal = system: 786-0 renal
SK-MEL-28 melanoma = system: SK-MEL-28 melanoma
SN12C renal = system: SN12C renal
COLO 205 colon = system: COLO 205 colon
SK-OV-3 ovarian = system: SK-OV-3 ovarian
DU-145 prostate = system: DU-145 prostate
HL-60(TB) leukemia = system: HL-60(TB) leukemia
UO-31 renal = system: UO-31 renal
UACC-257 melanoma = system: UACC-257 melanoma
HT29 colon = system: HT29 colon

**Q.** What does the source list for `CNC(=O)c1ccccc1Nc1nc(Nc2ccc(N3CCOCC3)cc2OC)ncc1Cl`?
**A.** GI50 (SW-620 colon): 400 nM; TGI (SW-620 colon): 2440 nM; GI50 (UACC-62 melanoma): 487 nM; TGI (UACC-62 melanoma): 2910 nM; GI50 (MCF7 breast): 93.7 nM; TGI (MCF7 breast): 14600 nM; GI50 (NCI/ADR-RES ovarian): 499 nM; TGI (NCI/ADR-RES ovarian): 2720 nM; GI50 (LOX IMVI melanoma): 754 nM; TGI (LOX IMVI melanoma): 2500 nM; GI50 (RPMI-8226 leukemia): 236 nM; TGI (RPMI-8226 leukemia): 826 nM; GI50 (SNB-75 CNS): 1160 nM; TGI (SNB-75 CNS): 4180 nM; GI50 (A498 renal): 519 nM; TGI (A498 renal): 9570 nM; GI50 (M14 melanoma): 359 nM; TGI (M14 melanoma): 5880 nM; GI50 (OVCAR-3 ovarian): 716 nM; TGI (OVCAR-3 ovarian): 6280 nM; GI50 (SF-268 CNS): 1620 nM; TGI (SF-268 CNS): 14300 nM; GI50 (A549 NSCLC): 398 nM; TGI (A549 NSCLC): 2120 nM; GI50 (SK-MEL-2 melanoma): 333 nM; TGI (SK-MEL-2 melanoma): 1670 nM; GI50 (HCT-116 colon): 562 nM; TGI (HCT-116 colon): 2850 nM; GI50 (NCI-H23 lung): 431 nM; TGI (NCI-H23 lung): 2630 nM; GI50 (NCI-H522 lung): 407 nM; TGI (NCI-H522 lung): 1720 nM; GI50 (OVCAR-5 ovarian): 597 nM; TGI (OVCAR-5 ovarian): 5660 nM; GI50 (T-47D breast): 1710 nM; TGI (T-47D breast): 8710 nM; GI50 (SF-539 CNS): 1390 nM; TGI (SF-539 CNS): 7130 nM; GI50 (HS 578T breast): 977 nM; TGI (HS 578T breast): 3470 nM; GI50 (SF-295 CNS): 511 nM; TGI (SF-295 CNS): 7440 nM; GI50 (MDA-MB-435 melanoma): 441 nM; TGI (MDA-MB-435 melanoma): 6630 nM; GI50 (HOP-92 NSCLC): 472 nM; TGI (HOP-92 NSCLC): 2230 nM; GI50 (MDA-MB-231 breast): 715 nM; TGI (MDA-MB-231 breast): > 100000 nM; GI50 (PC-3 prostate): 1870 nM; TGI (PC-3 prostate): 13500 nM; GI50 (HCC-2998 colon): 711 nM; TGI (HCC-2998 colon): 3360 nM; GI50 (CCRF-CEM leukemia): 199 nM; TGI (CCRF-CEM leukemia): 376 nM; GI50 (NCI-H460 NSCLC): 267 nM; TGI (NCI-H460 NSCLC): 1160 nM; GI50 (OVCAR-8 ovarian): 846 nM; TGI (OVCAR-8 ovarian): 5780 nM; GI50 (SNB-19 CNS): 2690 nM; TGI (SNB-19 CNS): 19600 nM; GI50 (MDA-MB-468 breast): 655 nM; TGI (MDA-MB-468 breast): 2200 nM; GI50 (K-562 leukemia): 4530 nM; TGI (K-562 leukemia): 18100 nM; GI50 (HCT-15 colon): 464 nM; TGI (HCT-15 colon): 10900 nM; GI50 (RXF 393 renal): 467 nM; TGI (RXF 393 renal): 2310 nM; GI50 (EKVX NSCLC): 158 nM; TGI (EKVX NSCLC): 1320 nM; GI50 (HOP-62 NSCLC): 751 nM; TGI (HOP-62 NSCLC): 8770 nM; GI50 (U251 glioblastoma): 2350 nM; TGI (U251 glioblastoma): 13200 nM; GI50 (NCI-H322M lung): 1320 nM; TGI (NCI-H322M lung): 3980 nM; GI50 (SK-MEL-5 melanoma): 766 nM; TGI (SK-MEL-5 melanoma): 10700 nM; GI50 (KM12 colon): 261 nM; TGI (KM12 colon): 899 nM; GI50 (ACHN renal): 1110 nM; TGI (ACHN renal): 9280 nM; GI50 (IGROV1 ovarian): 380 nM; TGI (IGROV1 ovarian): 1910 nM; GI50 (OVCAR-4 ovarian): 547 nM; TGI (OVCAR-4 ovarian): 18700 nM; GI50 (MALME-3M melanoma): 287 nM; TGI (MALME-3M melanoma): 4720 nM; GI50 (TK-10 renal): 450 nM; TGI (TK-10 renal): 2190 nM; GI50 (CAKI-1 renal): 664 nM; TGI (CAKI-1 renal): 2440 nM; GI50 (BT-549 breast): 1260 nM; TGI (BT-549 breast): 10400 nM; GI50 (NCI-H226 lung): 636 nM; TGI (NCI-H226 lung): 5350 nM; GI50 (MOLT-4 leukemia): 200 nM; TGI (MOLT-4 leukemia): 380 nM; GI50 ([…]-0 renal): 997 nM; TGI (786-0 renal): 4990 nM; GI50 (SK-MEL-28 melanoma): 1340 nM; TGI (SK-MEL-28 melanoma): 13400 nM; GI50 (SN12C renal): 1380 nM; TGI (SN12C renal): 6860 nM; GI50 (COLO 205 colon): 138 nM; TGI (COLO 205 colon): 289 nM; GI50 (SK-OV-3 ovarian): 741 nM; TGI (SK-OV-3 ovarian): 4800 nM; GI50 (DU-145 prostate): 485 nM; TGI (DU-145 prostate): 3470 nM; GI50 (HL-60(TB) leukemia): 107 nM; TGI (HL-60(TB) leukemia): 264 nM; GI50 (UO-31 renal): 718 nM; TGI (UO-31 renal): 5320 nM; GI50 (UACC-257 melanoma): 2620 nM; TGI (UACC-257 melanoma): 22200 nM; GI50 (HT29 colon): 200 nM; TGI (HT29 colon): 1660 nM
